Each structure is given as a SMILES string. “Also recorded” adds a separate entry of the source.

In assay [1] the test system is BJAB Burkitt lymphoma cells. The assay can be described thus: CellTiter-Glo Luminescent Cell Viability assay. The class given is cell-based. The conditions noted are these: 72 h; for effect on BJAB cell viability: top concentration 10 uM. As to the method:
Compounds 1 and compound 28 were evaluated in a CellTiter-Glo (CTG) Luminescence cell viability assay in BJAB Burkitt lymphoma cells that are known to be sensitive to eIF4A inhibition. This assay quantitates the number of living, metabolically active cells by measuring their ATP levels.
Cell viability assay. BJAB lymphoma cells were plated in quadruplicate at 5,000 cells/well in serial dilutions of drug ranging two logs with the top concentration of compounds tested at 10 uM. Viability was measured after 72 h using Cell Titer Glo (Promega G7573) following the manufacturer's protocol. Luminescence was detected on the BioTek HT Synergy plate reader and values were normalized to vehicle-treated (DMSO) wells. Silvestrol was included as a positive control (not shown).

The target of assay [2] is T1, eIF4A (Homo sapiens, UniProt P60842). The assay can be described thus: RNA-stimulated malachite green ATPase assay. The class given is biochemical. More on the design: 6xHis with TEV protease site (N, cleaved yes); made in house; host or cells: E. coli BL21-CodonPlus. To be noted: for potency in the eIF4A ATPase assay (in words): comparison within the series. As to the method:
Human eIF4A protein was produced recombinantly and a greater than 100,000-compound screen for inhibitors was completed using a malachite green ATPase assay (FIG. 11A). […] A stable mixture of yeast RNAs was added in an effort to improve this system and create a more biologically relevant eIF4A assay. eIF4A ATPase activity was accelerated without a statistically significant increase in the background signal in the presence of this RNA (FIG. 11B), and the new conditions gave excellent statistical parameters in a 384-well plate format (FIG. 11C).
ATPase assay. Recombinant WT or mutant eIF4A was added to a clear bottom 384 well plate (Greiner) in ATPase buffer (20 mM Tris pH 7.4, 80 mM KCl, 2.5 mM MgCl2, 1 mM DTT, 1% glycerol). Compounds were added and the plate was incubated at 37° C. for 20 min. ATP/RNA solution was added to afford a 20 μL per well reaction volume with 750 nM eIF4A, 250 μM ATP, and 0.25 mg/mL Yeast RNA (Sigma) for the initial screen and dose responses, and varying concentrations of ATP and RNA for the kinetic assays. The plate was incubated for 4 h at 37° C. for the initial screen and dose responses, and at seven time points (1 hour-7 hours) for kinetic assays. 0.04% v/v (final concentration) Tween-20 was added to a Malachite Green solution, and the Malachite Green (40 μL per well) was added. The solution was incubated for 5 minutes at room temperature and Absorbance at 660 nm was read on a SpectraMax iD5 plate reader (Molecular Devices).
Target sequence in this assay (P60842 whole entry): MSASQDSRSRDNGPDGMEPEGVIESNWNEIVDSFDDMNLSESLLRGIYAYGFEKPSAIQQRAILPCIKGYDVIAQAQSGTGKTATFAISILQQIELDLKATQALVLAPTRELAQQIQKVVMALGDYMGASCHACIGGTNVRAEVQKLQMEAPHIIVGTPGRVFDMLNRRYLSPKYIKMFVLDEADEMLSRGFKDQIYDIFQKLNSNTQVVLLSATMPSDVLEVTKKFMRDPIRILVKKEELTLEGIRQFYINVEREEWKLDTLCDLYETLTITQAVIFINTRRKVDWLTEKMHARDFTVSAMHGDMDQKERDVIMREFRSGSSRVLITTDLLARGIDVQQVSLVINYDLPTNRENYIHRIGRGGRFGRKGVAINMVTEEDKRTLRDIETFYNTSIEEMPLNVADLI

Assay [3] concerns HCV IRES-dependent translation of Renilla luciferase. Briefly: in vitro translation of bicistronic luciferase reporter in rabbit reticulocyte lysate, Renilla luciferase. Type of assay: biochemical. To be noted: Cycloheximide 600 μM, Silvestrol 100 nM. The source says: (§1) A bicistronic luciferase reporter ([…]) (FIG. 7B, top) was programmed into rabbit reticulocyte lysates, cellular extracts capable of performing both cap-dependent and Hepatitis C virus (HCV) internal ribosomal entry site (IRES)-mediated translation. eIF4A is the enzymatic driver of cap-dependent translation and is not involved in translation through HCV IRES. Compounds that inhibit eIF4A should inhibit cap-dependent translation of firefly (FF) luciferase while leaving IRES-mediated translation of Renilla (Ren) luciferase relatively unaffected. The inhibitory activities of cycloheximide, silvestrol, and 28 were assessed in this in vitro translation assay (FIG. 7B, bottom). […] The ability of compound 28 to preferentially target cap-dependent translation in a similar manner as silvestrol provides promising evidence that 28 inhibits eIF4A and not other proteins in the general translational machinery.
(§2) The dual-luciferase reporter plasmid pSP/(CAG)33/FF/HCV/Ren-pA51 was linearized with BamHI and subsequently in vitro transcribed using the Promega mMessage mMachine SP6 transcription kit, according to manufacturer's specifications. RNA was precipitated with LiCI and resuspended in H2O for use in in vitro translation experiments. Rabbit reticulocyte lysate (RRL) (nuclease-treated, Promega) was used to assess inhibitory effects of 28 on translation of the dual-reporter. Briefly, a reaction consisting of 50% RRL, 30 ng/μL reporter RNA, 10 μM Amino Acid Mixture Minus Methionine, 10 μM Amino Acid Mixture Minus Leucine, […], 1 U/μL RNAseOut (Thermo), and drug (final DMSO concentration 1%) were incubated at 30° C. for 90 minutes. The reaction was quenched with 50 μL 1× Passive Lysis Buffer (Promega), 10 μL of the mix was transferred to a 96-well white plate (Cellstar), and the Dual-Reporter Luciferase Assay System (Promega) was used to generate luminescence according to the manufacturer's instructions. Luminescence was detected using a plate reader (BioTek HT Synergy).

In assay [4] the test system is cap-dependent translation of firefly luciferase. Briefly: in vitro translation of bicistronic luciferase reporter in rabbit reticulocyte lysate, firefly luciferase. Type of assay: biochemical. To be noted: Cycloheximide 600 μM, Silvestrol 100 nM.
Text: as §1, §2

Assay [5] addresses T1, eIF4A. Briefly: Cellular Thermal Shift Assay (CETSA) in A549 cells. The class given is cell-based. More on the design: endogenous in cells; host or cells: A549 cells. The conditions noted are these: 90 min, 55° C., silvestrol 100 nM. As to the method:
In CETSA, thermal stability of a protein is assessed by heating cells and then separating insoluble, aggregated, or denatured proteins from soluble proteins through supernatant/pellet fractionation. Levels of the protein of interest (eIF4A) remaining in the soluble fraction are then measured by western blot. The principle of CETSA is similar to differential scanning fluorimetry (DSF), in that thermal stability and solubility of a protein increases upon binding a ligand.
Cellular Thermal Shift Assay (CETSA). A549 cells were seeded into wells in 6-well plates and on the following day were exposed to 28 or silvestrol (100 nM) for 90 min. Cells were harvested, resuspended in 50 μL DMEM, and dispensed into thin-walled PCR tubes. Cells were subjected to 3 min of heat at 55° C. in a thermocycler (miniPCR). After heating, cells were left to cool for 3 min and then snap-frozen on dry ice. Cells were subjected to 3 rapid freeze thaws with 15 seconds of vortexing after each thaw. After the first thaw, 1 μL of a dissolved Pierce protease inhibitor tablet (ThermoFisher—A32963) was added to the cell lysate. Cell lysates were centrifuged at 20,000×g for 20 min. […] All immunoblot images were taken using the Azure 600 imaging system (Azure Biosystems) and analyzed using ImageJ 1.51s (NIH). […]
Target sequence in this assay (P60842 2-406): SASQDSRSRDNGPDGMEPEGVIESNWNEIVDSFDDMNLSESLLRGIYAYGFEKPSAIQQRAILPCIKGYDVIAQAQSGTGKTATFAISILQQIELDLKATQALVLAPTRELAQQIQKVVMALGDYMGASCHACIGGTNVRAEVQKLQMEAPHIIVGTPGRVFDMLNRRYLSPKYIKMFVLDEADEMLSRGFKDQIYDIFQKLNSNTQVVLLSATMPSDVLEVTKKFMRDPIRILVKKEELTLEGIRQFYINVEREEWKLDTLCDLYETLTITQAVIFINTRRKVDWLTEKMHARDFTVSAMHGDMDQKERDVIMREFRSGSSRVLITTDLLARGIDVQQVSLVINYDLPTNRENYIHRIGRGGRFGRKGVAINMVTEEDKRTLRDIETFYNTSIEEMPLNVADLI

The target of assay [6] is T1, eIF4A. Briefly: MANT-ATP fluorescence polarization assay. The class given is binding. More on the design: 6xHis with TEV protease site (N, cleaved yes); made in house; host or cells: E. coli BL21-CodonPlus. The conditions noted are these: compound 200 μM or ADP 1 mM; MANT-ATP 100 nM. The method, then:
Additional biochemical testing was performed on compound 28 to investigate its mechanism of eIF4A inhibition. Initially, kinetics experiments were repeated with compound 28, and the results for compound 28 matched those of compound 1 (FIG. 5D, 4A). Upon addition of compound 28, Km and Vmax of eIF4A decreased with respect to ATP. With respect to RNA, eIF4A Km […] and Vmax remained constant. […] Fluorescence polarization (FP) assays were utilized to confirm this mechanism of inhibition by testing the ability of compound 28 to compete fluorescent substrates off eIF4A. First, an FP assay was performed with MANT-ATP, a fluorescent, non-hydrolysable ATP analog, as the substrate.
MANT-ATP fluorescence polarization assay. Recombinant eIF4A (15 μM) was added to a low-volume black 384 well plate (Greiner). Yeast RNA (0.25 mg/mL) was added along with compound (200 μM) or ADP (1 mM) and the plate was incubated for 20 min. MANT-ATP was added (100 nM) and the plate was incubated for 30 min before fluorescence polarization was read at 355 nm:448 nm (Ex:Em) on a SpectraMax iD5 plate reader (Molecular Devices).
Target sequence in this assay (P60842 whole entry): as the sequence (P60842 whole entry) above

Take `CCCCc1ccc(-c2ccc(-c3cc(C(=O)O)c4cc(NC(C)=O)ccc4n3)o2)cc1` [Compound 25, 6-acetamido-2-(5-(4-butylphenyl)furan-2-yl)quinoline-4-carboxylic acid]: the “effect on BJAB cell viability” value in assay [1] is given as “do not decrease BJAB cellular viability”. The “potency in the eIF4A ATPase assay (in words)” value (shortened to “potency”) at eIF4A [2] is “lose potency in the ATPase assay; also recorded: major losses in potency”.
On to `Nc1cccc(-c2ccc(-c3cc(C(=O)O)c4cc([N+](=O)[O-])ccc4n3)o2)c1` [Compound 47, 2-(5-(3-aminophenyl)furan-2-yl)-6-nitroquinoline-4-carboxylic acid], for which, in assay [1], the “effect on BJAB cell viability” value was “do not inhibit BJAB cell viability”. Besides, at eIF4A [2], the “potency” value is given as “low potency; also recorded: lose potency in the ATPase assay”.
As for `CCCCc1ccc(-c2ccc(-c3cc(C(=O)O)c4ccc(Cl)cc4n3)o2)cc1` [Compound 9, 2-(5-(4-butylphenyl)furan-2-yl)-7-chloroquinoline-4-carboxylic acid], the EC50 – broadly, the concentration at which the effect is half-maximal – in assay [1] (Homo sapiens, CellTiter-Glo, n=4) came to 4.29 ± 0.23 µM. In addition, at eIF4A [2] (750 nM eIF4A, 250 μM ATP, 0.25 mg/mL Yeast RNA, 4 h at 37° C.), it took 21.7 ± 3.39 µM to reach half-maximal inhibition (IC50). The “potency” value at eIF4A [2] is “moderate potency; also recorded: performing the best in the ATPase assay of any inhibitor produced”.
Turning to `C[C@@H]1C[C@@H]([C@H](O)CC2CC(=O)NC(=O)C2)C(=O)[C@@H](C)C1` [Cycloheximide, reference compound], the “effect on HCV IRES-mediated translation (Renilla luciferase)” value in assay [3] was “inhibits both cap-dependent and IRES-mediated translation”. Also, in assay [4], the “effect on cap-dependent translation (firefly luciferase)” value was “inhibits both cap-dependent and IRES-mediated translation”.
Regarding `COC(=O)[C@H]1[C@@H](O)[C@@]2(O)c3c(OC)cc(O[C@@H]4O[C@@H]([C@H](O)CO)CO[C@H]4OC)cc3O[C@@]2(c2ccc(OC)cc2)[C@@H]1c1ccccc1` [silvestrol, reference compound], the “effect on HCV IRES-mediated translation (Renilla luciferase)” value in assay [3] is reported as “only show a modest effect on HCV IRES-dependent translation of Renilla luciferase”. The “effect on cap-dependent translation (firefly luciferase)” value in assay [4] was “inhibit cap-dependent translation of firefly luciferase”. For the same compound, the “thermal stability of eIF4A in cells (CETSA)” value on eIF4A [5] is recorded as “increased thermal stability of eIF4A”.
For the compound `Nc1ncnc2c1ncn2[C@@H]1O[C@H](COP(=O)(O)OP(=O)(O)O)[C@@H](O)[C@H]1O` [ADP, reference compound], the “competition of MANT-ATP off eIF4A” value on eIF4A [6] is “able to compete MANT-ATP out of its binding pocket”.
Consider `CCCCc1ccc(-c2ccc(-c3cc(C(=O)O)c4cc(N)ccc4n3)o2)cc1` [Compound 24, 6-amino-2-(5-(4-butylphenyl)furan-2-yl)quinoline-4-carboxylic acid], for which the “effect on BJAB cell viability” value in assay [1] is given as “do not decrease BJAB cellular viability”. Also, the “potency” value on eIF4A [2] is “lose potency in the ATPase assay; also recorded: major losses in potency”.
For `CCCCc1ccc(-c2ccc(-c3cc(C(=O)OCC)c4cc([N+](=O)[O-])ccc4n3)o2)cc1` [Compound 29, ethyl 2-(5-(4-butylphenyl)furan-2-yl)-6-nitroquinoline-4-carboxylate], in assay [1], the “effect on BJAB cell viability” value was “did not inhibit cellular viability”. At eIF4A [2], the “potency” value was “not potent in the ATPase assay; also recorded: lost all eIF4A potency”.
Take `Nc1ccc(-c2ccc(-c3cc(C(=O)O)c4cc([N+](=O)[O-])ccc4n3)o2)cc1` [Compound 46, 2-(5-(4-aminophenyl)furan-2-yl)-6-nitroquinoline-4-carboxylic acid]: in assay [1], the “effect on BJAB cell viability” value is on record as “do not inhibit BJAB cell viability”. Further, the “potency” value at eIF4A [2] was “low potency; also recorded: lose potency in the ATPase assay”.

Values taken from patent US20240360107A1, “AN EIF4A INHIBITOR WITH A NOVEL MECHANISM OF ACTION” (ARIZONA BOARD OF REGENTS ON BEHALF OF THE UNIVERSITY OF …, priority 2021, published 2024).
